One experiment has as its target CDK4/CycD (Homo sapiens (Human), UniProt P11802). The experiment in a line: CDK4/CycD kinase inhibition (Biological Table 1). In kind it is biochemical.
The next experiment deals with CDK6/CycD3 (Homo sapiens (Human), UniProt Q00534). The experiment in a line: CDK6/CycD3 kinase inhibition (Biological Table 1). In kind it is biochemical.
Another experiment has as its target CDK2/CycE (Homo sapiens (Human), UniProt P24941). The experiment in a line: CDK2/CycE kinase inhibition (Biological Table 1). The class given is biochemical.
The target of a further experiment is CDK2/CycA (Homo sapiens (Human), UniProt P24941). The experiment in a line: CDK2/CycA kinase inhibition (Biological Table 1). The class given is biochemical.
The target in another experiment is CDK5/p35 (Homo sapiens (Human), UniProt Q00535). The experiment in a line: CDK5/p35 kinase inhibition (Biological Table 1). In kind it is biochemical.
CDK5/p35, sequence (Q00535 whole entry): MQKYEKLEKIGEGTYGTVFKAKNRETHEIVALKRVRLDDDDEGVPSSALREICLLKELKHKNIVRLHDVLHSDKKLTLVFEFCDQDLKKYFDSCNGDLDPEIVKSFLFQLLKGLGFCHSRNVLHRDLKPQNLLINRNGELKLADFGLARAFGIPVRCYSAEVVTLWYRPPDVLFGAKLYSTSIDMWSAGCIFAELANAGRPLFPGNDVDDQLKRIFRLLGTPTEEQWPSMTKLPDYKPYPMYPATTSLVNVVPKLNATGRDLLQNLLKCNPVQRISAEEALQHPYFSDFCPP
CDK5/p35, sequence (Q15078 whole entry partner): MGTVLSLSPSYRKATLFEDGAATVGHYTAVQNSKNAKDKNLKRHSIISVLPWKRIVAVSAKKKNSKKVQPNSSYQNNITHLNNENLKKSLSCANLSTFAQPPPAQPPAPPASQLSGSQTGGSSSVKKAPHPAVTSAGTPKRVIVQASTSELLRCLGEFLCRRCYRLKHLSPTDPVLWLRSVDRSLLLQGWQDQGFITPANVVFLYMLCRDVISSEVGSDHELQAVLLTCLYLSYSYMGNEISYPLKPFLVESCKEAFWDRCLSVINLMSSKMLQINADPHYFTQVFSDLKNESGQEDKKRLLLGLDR
The target in a further experiment is CDK5/p25 (Homo sapiens (Human), UniProt Q00535). The experiment in a line: CDK5/p25 kinase inhibition (Biological Table 2). The class given is biochemical.
CDK5/p25, sequence (Q00535 whole entry): as the sequence (Q00535 whole entry) above
The next experiment concerns the target CDK7/CycH/MAT1 (Homo sapiens (Human), UniProt P50613). As to the kind of experiment: CDK7/CycH/MAT1 kinase inhibition (Biological Table 2). In kind it is biochemical.
In another experiment the target is CDK9/CycT (Homo sapiens (Human), UniProt P50750). As to the kind of experiment: CDK9/CycT kinase inhibition (Biological Table 2). The class given is biochemical.
CDK9/CycT, sequence (P50750 whole entry): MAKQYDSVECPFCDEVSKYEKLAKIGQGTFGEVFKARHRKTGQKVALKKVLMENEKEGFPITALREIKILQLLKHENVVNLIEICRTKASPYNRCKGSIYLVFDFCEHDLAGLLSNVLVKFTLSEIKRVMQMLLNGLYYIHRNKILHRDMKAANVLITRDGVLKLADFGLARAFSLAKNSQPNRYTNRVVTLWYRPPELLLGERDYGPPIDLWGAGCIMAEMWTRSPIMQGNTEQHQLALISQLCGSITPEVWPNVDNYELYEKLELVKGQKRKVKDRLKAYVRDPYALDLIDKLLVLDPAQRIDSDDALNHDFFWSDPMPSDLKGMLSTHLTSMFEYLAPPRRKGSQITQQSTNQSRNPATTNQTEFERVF
CDK9/CycT, sequence (O60563 whole entry partner): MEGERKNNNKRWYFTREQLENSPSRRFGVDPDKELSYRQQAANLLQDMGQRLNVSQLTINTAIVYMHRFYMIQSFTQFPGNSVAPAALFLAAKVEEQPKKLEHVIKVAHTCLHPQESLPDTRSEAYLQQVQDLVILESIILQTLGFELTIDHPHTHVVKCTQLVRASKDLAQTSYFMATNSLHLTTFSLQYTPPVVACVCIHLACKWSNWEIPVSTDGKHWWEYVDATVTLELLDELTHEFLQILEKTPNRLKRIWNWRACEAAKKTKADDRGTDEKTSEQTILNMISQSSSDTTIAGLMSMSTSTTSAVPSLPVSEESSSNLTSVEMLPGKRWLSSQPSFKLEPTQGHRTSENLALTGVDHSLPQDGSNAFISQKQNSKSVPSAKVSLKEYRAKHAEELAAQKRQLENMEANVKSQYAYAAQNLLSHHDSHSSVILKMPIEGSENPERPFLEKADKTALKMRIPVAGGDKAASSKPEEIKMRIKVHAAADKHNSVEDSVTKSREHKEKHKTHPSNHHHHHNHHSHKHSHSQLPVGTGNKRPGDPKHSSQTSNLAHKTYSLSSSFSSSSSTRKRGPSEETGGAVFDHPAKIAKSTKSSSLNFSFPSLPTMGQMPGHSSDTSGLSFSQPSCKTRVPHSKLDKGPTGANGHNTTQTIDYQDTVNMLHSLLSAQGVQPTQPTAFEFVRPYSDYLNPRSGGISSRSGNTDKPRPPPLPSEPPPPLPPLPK
In another experiment the target is CDK4/CyclinD1 (Homo sapiens (Human), UniProt P11802). As to the kind of experiment: CDK4/cyclinD1 kinase assay, microfluidic kinase detection (Caliper, Nanosyn). In kind it is biochemical. The note with it: 12-point dose-response, ATP at Km (200 μM), enzyme 1 nM, incubation 10 hr; read-out: CDK4/Cyclin D1. On the procedure: (§1) Selected compounds disclosed herein were tested in CDK4/cyclinD1, CDK2/CycA and CDK2/cyclinE kinase assays by Nanosyn (Santa Clara, Calif.) to determine their inhibitory effect on these CDKs. The assays were performed using microfluidic kinase detection technology (Caliper Assay Platform). The compounds were tested in 12-point dose-response format in singlicate at Km for ATP. Phosphoacceptor substrate peptide concentration used was 1 μM for all assays and Staurosporine was used as the reference compound for all assays. Specifics of each assay are as described below:
CDK4/CyclinD1: Enzyme concentration: 1 nM; ATP concentration: 200 μM; Incubation time: 10 hr.

The target in the next experiment is CDK6/Cyclin D3 (Homo sapiens (Human), UniProt Q00534). The experiment in a line: CDK6/Cyclin D3 kinase assay (Biological Table 3). The class given is biochemical. On the procedure:
[Worded in the source for another target; this target is reported under the same test.] Selected compounds disclosed herein were tested in CDK4/cyclinD1, CDK2/CycA and CDK2/cyclinE kinase assays by Nanosyn (Santa Clara, Calif.) to determine their inhibitory effect on these CDKs. The assays were performed using microfluidic kinase detection technology (Caliper Assay Platform). The compounds were tested in 12-point dose-response format in singlicate at Km for ATP. Phosphoacceptor substrate peptide concentration used was 1 μM for all assays and Staurosporine was used as the reference compound for all assays.

The target in the next experiment is CDK2/CyclinE (Homo sapiens (Human), UniProt P24941). The experiment in a line: CDK2/cyclinE kinase assay, microfluidic kinase detection (Caliper, Nanosyn). The class given is biochemical. To be noted: 12-point dose-response, ATP at Km (100 μM), enzyme 0.28 nM, incubation 1 hr; read-out: CDK2/Cyclin E. On the procedure:
as §1
CDK2/CyclinE: Enzyme concentration: 0.28 nM; ATP concentration: 100 μM; Incubation time: 1 hr.

The target in the next experiment is CDK2/CyclinA (Homo sapiens (Human), UniProt P24941). The experiment in a line: CDK2/CycA kinase assay, microfluidic kinase detection (Caliper, Nanosyn). In kind it is biochemical. To be noted: 12-point dose-response, ATP at Km (50 μM), enzyme 0.2 nM, incubation 3 hr; read-out: CDK2/Cyclin A. As to the method:
as §1
CDK2/CyclinA: Enzyme concentration: 0.2 nM; ATP concentration: 50 μM; Incubation time: 3 hr.

In a further experiment the target is CDK9/Cyclin T (Homo sapiens (Human), UniProt P50750). The experiment in a line: CDK9/Cyclin T kinase assay (Biological Table 3). In kind it is biochemical.
CDK9/Cyclin T, sequence (P50750 whole entry): as the sequence (P50750 whole entry) above
CDK9/Cyclin T, sequence (O60563 whole entry partner): as the sequence (O60563 whole entry partner) above
In the next experiment the test system is Hs68 cells. As to the kind of experiment: Cell population by DNA content (<2N, G0-G1, S, G2-M) as measure of apoptotic cells. In kind it is cell-based. The note with it: at every dose administered (FIG. 4). An excerpt: FIG. 4 is a bar graph showing the population of cells with a DNA content less than 2N, cells in the G0-G1 phase, cells in the S phase, and cells in the G2-M phase as a way to measure the relative amount of apoptotic cells following administration of control and Compound 28. The population of apoptotic cells after exposure to Compound 28 was greater than 70% at every dose administered. The assay was done in a population of Hs68 cells. * is <2000 events. The Compound number and dose, measured in μM and nM, are shown on the x-axis and the cell population, measured in percent, is shown on the y-axis.

Molecules are shown by their SMILES.

CDK6/CycD3, sequence (Q00534 whole entry): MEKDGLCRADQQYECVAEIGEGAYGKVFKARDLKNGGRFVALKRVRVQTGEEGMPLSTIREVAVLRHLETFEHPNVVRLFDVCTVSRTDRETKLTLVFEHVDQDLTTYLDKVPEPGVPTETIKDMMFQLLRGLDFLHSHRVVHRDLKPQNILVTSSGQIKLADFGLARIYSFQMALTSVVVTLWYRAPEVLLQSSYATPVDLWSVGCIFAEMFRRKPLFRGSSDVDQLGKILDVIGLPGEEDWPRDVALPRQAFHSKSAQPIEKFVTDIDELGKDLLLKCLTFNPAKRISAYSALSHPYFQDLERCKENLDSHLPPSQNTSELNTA
CDK6/CycD3, sequence (P30281 whole entry partner): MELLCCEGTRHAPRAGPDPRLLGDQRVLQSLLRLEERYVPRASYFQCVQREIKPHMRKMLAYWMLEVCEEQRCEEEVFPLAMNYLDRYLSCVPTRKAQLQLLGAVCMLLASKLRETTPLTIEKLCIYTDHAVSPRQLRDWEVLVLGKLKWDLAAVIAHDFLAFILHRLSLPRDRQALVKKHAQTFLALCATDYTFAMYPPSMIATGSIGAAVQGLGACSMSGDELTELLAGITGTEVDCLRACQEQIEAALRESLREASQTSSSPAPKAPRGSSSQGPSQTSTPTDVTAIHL
CDK7/CycH/MAT1, sequence (P50613 whole entry): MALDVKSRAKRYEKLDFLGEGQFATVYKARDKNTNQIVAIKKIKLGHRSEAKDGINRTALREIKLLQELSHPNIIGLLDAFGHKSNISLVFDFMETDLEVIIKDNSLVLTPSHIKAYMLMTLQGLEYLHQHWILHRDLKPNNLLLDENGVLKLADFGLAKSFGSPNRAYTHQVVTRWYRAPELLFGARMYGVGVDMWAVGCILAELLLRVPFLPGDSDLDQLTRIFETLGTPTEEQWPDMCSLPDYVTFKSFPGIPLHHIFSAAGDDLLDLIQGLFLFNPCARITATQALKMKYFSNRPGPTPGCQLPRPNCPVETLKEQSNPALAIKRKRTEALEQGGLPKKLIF
CDK7/CycH/MAT1, sequence (P51946 whole entry partner): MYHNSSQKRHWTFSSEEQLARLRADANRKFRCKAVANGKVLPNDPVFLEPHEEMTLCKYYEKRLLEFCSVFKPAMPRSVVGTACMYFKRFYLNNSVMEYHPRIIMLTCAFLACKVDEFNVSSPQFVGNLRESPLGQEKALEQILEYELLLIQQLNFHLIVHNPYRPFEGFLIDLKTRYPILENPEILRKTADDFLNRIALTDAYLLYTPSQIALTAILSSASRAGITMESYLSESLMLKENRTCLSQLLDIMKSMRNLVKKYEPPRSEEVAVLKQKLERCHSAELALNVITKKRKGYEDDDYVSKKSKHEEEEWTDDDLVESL
CDK7/CycH/MAT1, sequence (P51948 whole entry partner): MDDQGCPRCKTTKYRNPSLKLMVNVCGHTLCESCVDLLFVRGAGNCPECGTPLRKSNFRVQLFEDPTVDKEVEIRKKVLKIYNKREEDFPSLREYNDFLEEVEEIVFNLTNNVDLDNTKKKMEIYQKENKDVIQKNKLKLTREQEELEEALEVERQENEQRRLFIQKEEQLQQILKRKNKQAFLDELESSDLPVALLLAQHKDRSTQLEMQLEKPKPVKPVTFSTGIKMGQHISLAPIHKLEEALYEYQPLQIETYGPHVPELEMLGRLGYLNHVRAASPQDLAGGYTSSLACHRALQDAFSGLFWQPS
CDK4/CycD, sequence (P11802 whole entry): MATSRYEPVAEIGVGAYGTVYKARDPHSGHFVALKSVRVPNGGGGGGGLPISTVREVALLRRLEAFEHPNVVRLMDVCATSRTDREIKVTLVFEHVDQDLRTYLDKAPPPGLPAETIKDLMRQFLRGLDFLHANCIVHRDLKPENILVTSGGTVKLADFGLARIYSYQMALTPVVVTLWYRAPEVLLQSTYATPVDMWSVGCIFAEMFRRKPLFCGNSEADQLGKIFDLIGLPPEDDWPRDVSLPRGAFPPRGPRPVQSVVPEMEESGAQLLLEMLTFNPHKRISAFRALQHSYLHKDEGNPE
CDK4/CycD, sequence (P24385 whole entry partner): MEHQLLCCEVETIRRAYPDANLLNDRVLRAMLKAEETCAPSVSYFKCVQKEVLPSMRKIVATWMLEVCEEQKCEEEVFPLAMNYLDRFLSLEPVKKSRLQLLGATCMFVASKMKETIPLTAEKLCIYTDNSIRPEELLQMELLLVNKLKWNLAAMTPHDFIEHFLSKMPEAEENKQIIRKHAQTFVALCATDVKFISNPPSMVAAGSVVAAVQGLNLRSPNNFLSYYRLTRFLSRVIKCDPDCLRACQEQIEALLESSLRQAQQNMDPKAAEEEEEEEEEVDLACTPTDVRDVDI
CDK6/Cyclin D3, sequence (Q00534 whole entry): as the sequence (Q00534 whole entry) above
CDK6/Cyclin D3, sequence (P30281 whole entry partner): as the sequence (P30281 whole entry partner) above
CDK4/CyclinD1, sequence (P11802 whole entry): as the sequence (P11802 whole entry) above
CDK4/CyclinD1, sequence (P24385 whole entry partner): as the sequence (P24385 whole entry partner) above

In the case of `CN1CCN(c2ccc(Nc3ncc4c(n3)N3C(=NCCC35CCCCC5)C=C4)nc2)CC1` [Compound 9, N-(5-(4-methylpiperazin-1-yl)pyridin-2-yl)-8′,9′-dihydrospiro[cyclohexane-1,10′-pyrido[1,6-a:2,3-d′]dipyrimidin]-2′-amine], the IC50 against CDK4/CycD is 2.6 µM; on CDK6/CycD3, 1.8 µM; at CDK2/CycE, more than 100 µM; at CDK2/CycA, more than 100 µM; against CDK5/p35, more than 100 µM; against CDK5/p25 it was more than 100 µM. Moreover, the IC50 at CDK7/CycH/MAT1 and against CDK9/CycT was more than 100 µM each time.
With `CN1CCN(c2cnc(Nc3ncc4cc5n(c4n3)C3(CCCCC3)CNC5=O)nc2)CC1` [Compound 28, 2′-((5-(4-Methylpiperazin-1-yl)pyrimidin-2-yl)amino)-7′,8′-dihydro-6′H-spiro[cyclohexane-1,9′-pyrazino[1′,2′:1,5]pyrrolo [2,3-d]pyrimidin]-6′-one], the IC50 at CDK4/CyclinD1 was 0.02 µM; against CDK6/Cyclin D3 it was 0.06 µM; at CDK2/CyclinE it was more than 100 µM; on CDK2/CyclinA, 13.5 µM; against CDK9/Cyclin T it was 1 µM. The “population of apoptotic cells” value in the experiment with Hs68 cells is listed as “greater than 70%”.
Take `CN1CCN(c2ccc(Nc3ncc4c(n3)N3C(CC4=O)C(=O)NCC3(C)C)nc2)CC1` (stereo not drawn) [Compound 1, 10,10-dimethyl-2-((5-(4-methylpiperazin-1-yl)pyridin-2-yl)amino)-6,6a,9,10-tetrahydro-5H-pyrazino[1′,2′:1,6]pyrido[2,3-d]pyrimidine-5,7(8H)-dione]: the IC50 is 8.06 µM against CDK4/CycD; 30.6 µM on CDK6/CycD3; more than 100 µM at CDK2/CycE; more than 100 µM at CDK2/CycA; more than 100 µM against CDK5/p35; more than 100 µM against CDK5/p25. The IC50 at CDK7/CycH/MAT1 and on CDK9/CycT was more than 100 µM throughout.
Turning to `CCOC(=O)C1C(=O)c2cnc(Nc3ccc(N4CCN(C)CC4)cn3)nc2N2CCCCC12` (stereo not drawn) [Compound 8, ethyl 2-((5-(4-methylpiperazin-1-yl)pyridin-2-yl)amino)-5-oxo-6,6a,7,8,9,10-hexahydro-5H-pyrimido[5,4-c]quinolizine-6-carboxylate], the IC50 on CDK4/CycD is 4.1 µM; at CDK6/CycD3, 3.5 µM; against CDK2/CycE it was more than 100 µM; against CDK2/CycA, more than 100 µM; against CDK5/p35, more than 100 µM; on CDK5/p25, more than 100 µM. The IC50 against CDK7/CycH/MAT1 and against CDK9/CycT was more than 100 µM each time.
`CN1CCN(c2ccc(Nc3ncc4c(n3)N3CCCCC3CC4=O)nc2)CC1` (stereo not drawn) [Compound 7, 2-((5-(4-methylpiperazin-1-yl)pyridin-2-yl)amino)-6,6a,7,8,9,10-hexahydro-5H-pyrimido[5,4-c]quinolizin-5-one]: the IC50 was 4.7 µM against CDK4/CycD; 1.8 µM at CDK6/CycD3; more than 100 µM against CDK2/CycE; more than 100 µM against CDK2/CycA; more than 100 µM against CDK5/p35; more than 100 µM at CDK5/p25. Besides, the IC50 on CDK7/CycH/MAT1 and at CDK9/CycT was more than 100 µM in each case.
Turning to `CN1CCN(c2ccc(Nc3ncc4c(n3)N3C(CC4)C(=O)NCC34CCCCC4)nc2)CC1` (stereo not drawn) [Compound 4, 2′-((5-(4-methylpiperazin-1-yl)pyridin-2-yl)amino)-6′,6a′,8′,9′-tetrahydrospiro[cyclohexane-1,10′-pyrazino[1′,2′:1,6]pyrido[2,3-d]pyrimidin]-7′(5′H)-one], the IC50 against CDK4/CycD was 47.7 µM; on CDK6/CycD3, 75.9 µM; against CDK2/CycE, more than 100 µM; against CDK2/CycA, 86.4 µM; against CDK5/p35, more than 100 µM; against CDK5/p25 it was more than 100 µM. For the same compound, the IC50 on CDK7/CycH/MAT1 and against CDK9/CycT was more than 100 µM throughout.
As to `CN1CCN(c2ccc(Nc3ncc4c(n3)N3C(CC4=O)C(=O)NCC34CCCCC4)nc2)CC1` (stereo not drawn) [Compound 3], the IC50 at CDK4/CycD, against CDK6/CycD3, at CDK2/CycE, at CDK2/CycA, at CDK5/p35 and at CDK5/p25 was more than 100 µM each time. The IC50 on CDK7/CycH/MAT1 and against CDK9/CycT was more than 100 µM in each case.
